Legend:
MCF7 = assay: Antiproliferative activity against human MCF7 cells after 48 hrs by CCK-8 assay; settings: MCF7, 48 h
[1] = target: T1, Protein deacetylase HDAC6 (Homo sapiens, UniProt Q9UBN7); assay: Inhibition of HDAC6 (unknown origin) preincubated for 10 mins followed by Ac-Leu-GlyLys(Ac)-AMC substrate addition measured after 30 mins by fluorescence based assay
T1 sequence (Q9UBN7 whole entry): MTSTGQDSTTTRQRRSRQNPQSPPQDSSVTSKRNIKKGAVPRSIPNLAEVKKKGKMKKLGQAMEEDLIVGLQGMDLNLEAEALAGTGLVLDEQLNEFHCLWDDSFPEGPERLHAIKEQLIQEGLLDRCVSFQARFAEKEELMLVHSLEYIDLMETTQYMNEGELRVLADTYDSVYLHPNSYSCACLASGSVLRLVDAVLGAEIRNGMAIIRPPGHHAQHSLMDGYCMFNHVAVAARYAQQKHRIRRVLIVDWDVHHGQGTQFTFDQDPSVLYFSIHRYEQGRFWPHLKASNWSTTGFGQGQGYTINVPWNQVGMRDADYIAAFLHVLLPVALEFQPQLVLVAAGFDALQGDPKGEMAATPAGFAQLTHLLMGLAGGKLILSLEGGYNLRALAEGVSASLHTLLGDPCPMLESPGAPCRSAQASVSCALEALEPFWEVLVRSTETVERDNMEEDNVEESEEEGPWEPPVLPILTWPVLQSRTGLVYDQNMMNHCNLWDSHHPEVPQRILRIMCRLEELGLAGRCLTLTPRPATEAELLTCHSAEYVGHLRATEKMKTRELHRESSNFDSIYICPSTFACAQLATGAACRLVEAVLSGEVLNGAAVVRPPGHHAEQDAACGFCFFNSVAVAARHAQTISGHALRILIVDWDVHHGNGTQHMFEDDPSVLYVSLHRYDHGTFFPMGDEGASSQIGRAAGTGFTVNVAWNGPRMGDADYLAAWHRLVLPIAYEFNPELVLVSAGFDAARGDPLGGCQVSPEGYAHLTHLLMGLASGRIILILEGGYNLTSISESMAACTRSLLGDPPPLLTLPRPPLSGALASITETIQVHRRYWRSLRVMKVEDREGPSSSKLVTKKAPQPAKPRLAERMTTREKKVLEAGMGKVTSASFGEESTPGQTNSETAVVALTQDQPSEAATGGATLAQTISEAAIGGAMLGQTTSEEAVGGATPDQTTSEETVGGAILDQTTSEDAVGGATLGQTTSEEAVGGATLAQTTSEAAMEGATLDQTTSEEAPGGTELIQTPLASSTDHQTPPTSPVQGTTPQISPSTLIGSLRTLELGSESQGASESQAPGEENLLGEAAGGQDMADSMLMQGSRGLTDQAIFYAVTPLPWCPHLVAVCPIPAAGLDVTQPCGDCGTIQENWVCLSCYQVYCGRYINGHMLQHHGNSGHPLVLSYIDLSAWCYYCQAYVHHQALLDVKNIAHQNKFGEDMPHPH

Structure (SMILES) | IC50 (MCF7) [µM] | IC50 [1] [nM]
CCN1CCN(c2ccc(C(=O)Nc3n[nH]c4cc(-c5cccc(OC)c5F)ccc34)cc2)CC1 | 0.0405 | –
CCCOc1cccc(-c2ccc3c(NC(=O)c4ccc(C(=O)NO)cc4)n[nH]c3c2)c1 | > 100 | 345
O=C(NO)c1ccc(C(=O)Nc2n[nH]c3cc(-c4ccc(Cl)c(F)c4)ccc23)cc1 | > 100 | 98
CCOc1cccc(-c2ccc3c(NC(=O)c4ccc(C(=O)NO)cc4)n[nH]c3c2)c1 | 9 | 34
O=C(NO)c1ccc(C(=O)Nc2n[nH]c3cc(-c4cc(Cl)cc(Cl)c4)ccc23)cc1 | > 100 | 293
COc1ccccc1-c1ccc2c(NC(=O)c3ccc(C(=O)NO)cc3)n[nH]c2c1 | 28 | 40
O=C(NO)c1ccc(C(=O)Nc2n[nH]c3cc(-c4ccc(C(F)(F)F)cc4)ccc23)cc1 | > 100 | 103
COc1cccc(-c2ccc3c(NC(=O)c4ccc(C(=O)NO)cc4)n[nH]c3c2)c1F | > 100 | 58
O=C(NO)c1ccc(C(=O)Nc2n[nH]c3cc(-c4cc(Cl)ccc4Cl)ccc23)cc1 | > 100 | 178
O=C(NO)c1ccc(C(=O)Nc2n[nH]c3cc(-c4cccc(Cl)c4Cl)ccc23)cc1 | > 100 | 157
CC(C)Oc1cccc(-c2ccc3c(NC(=O)c4ccc(C(=O)NO)cc4)n[nH]c3c2)c1 | > 100 | 78
O=C(NO)c1ccc(C(=O)Nc2n[nH]c3cc(-c4cccc(OC(F)(F)F)c4)ccc23)cc1 | > 100 | 218
Cc1cc(C)cc(-c2ccc3c(NC(=O)c4ccc(C(=O)NO)cc4)n[nH]c3c2)c1 | > 100 | 250
COc1cc(OC)cc(-c2ccc3c(NC(=O)c4ccc(C(=O)NO)cc4)n[nH]c3c2)c1 | > 100 | 242
COc1ccc(-c2ccc3c(NC(=O)c4ccc(C(=O)NO)cc4)n[nH]c3c2)cc1OC | 15.2 | 33
O=C(NO)c1ccc(C(=O)Nc2n[nH]c3cc(-c4ccccc4)ccc23)cc1 | > 100 | 38
O=C(NO)c1ccc(C(=O)Nc2n[nH]c3cc(-c4cccc(Cl)c4)ccc23)cc1 | > 100 | 69
COc1ccc(F)cc1-c1ccc2c(NC(=O)c3ccc(C(=O)NO)cc3)n[nH]c2c1 | > 100 | 64
O=C(NO)c1ccc(C(=O)Nc2n[nH]c3cc(-c4ccc(Cl)c(Cl)c4)ccc23)cc1 | > 100 | 147
COc1cccc(-c2ccc3c(NC(=O)c4ccc(C(=O)NO)cc4)n[nH]c3c2)c1 | > 100 | 132
O=C(NO)c1ccc(C(=O)Nc2n[nH]c3cc(-c4ccccc4F)ccc23)cc1 | 45 | 65
O=C(NO)c1ccc(C(=O)Nc2n[nH]c3cc(-c4c(Cl)cccc4Cl)ccc23)cc1 | > 100 | 385
O=C(NO)c1ccc(C(=O)Nc2n[nH]c3cc(-c4ccc(Cl)cc4)ccc23)cc1 | > 100 | 281
O=C(NO)c1ccc(C(=O)Nc2n[nH]c3cc(-c4ccccc4Cl)ccc23)cc1 | 23 | 59
COc1ccc(-c2ccc3c(NC(=O)c4ccc(C(=O)NO)cc4)n[nH]c3c2)cc1 | 22 | 41
CCCCN(Cc1ccc(C(=O)NO)cc1)C(=O)Nc1ccccc1 [NEXTURASTAT A] | 1.4 | –

Source: ChEMBL document CHEMBL4184206, “Design, synthesis and evaluate of novel dual FGFR1 and HDAC inhibitors bearing an indazole scaffold” (Bioorg Med Chem, 2018)
